These results are taken from patent US20210170052A1, “THERAPEUTIC METHODS AND COMPOSITIONS FOR SOLID DELIVERY” (Presage Biosciences, Inc., priority 2010, published 2021).

Structures are written as SMILES.

In one experiment the test system is mouse tumor. The experiment can be described thus: Spatially restricted injection into a mouse tumor with indicator dyes (apoptosis signal imaging). The experiment is classed as in vivo. Conditions: excitation 640 nm, emission 720 nm of the dye, versus control. The procedure: FIG. 14 depicts the use of various indicator dyes according to the method, to monitor spatially restricted delivery of compounds and resulting localized effects on regions of a tumor. A mouse tumor was injected with 1. doxorubicin; and 2. a control. Panel A illustrates excitation at 640 nm and emission at 800 nm of the dye. Panel B illustrates the doxorubicin signal (3.) observed after excitation at 500 nm and emission at 600 nm of doxorubicin. Panel C illustrates an apoptosis signal (4.) observed after excitation at 640 nm and emission at 720 nm of the dye.

A further experiment relates to lymphoma tumor. In words: Doxorubicin delivered to a lymphoma tumor using a porous tube; fluorescence and brightfield microscopy of tumor slices. It counts as in vivo. Conditions: porous tube delivery, three tumor depths. The source says: Doxorubicin was delivered to a lymphoma tumor using a porous tube of the method. The tumor was then excised and sectioned. […] Regions of doxorubicin fluorescence and cell death are localized to a zone within the tumor slice, reflecting spatially constrained doxorubicin delivery.

The subject of experiment [1] is Intracranial medulloblastoma model (conditional Patchedl null) mice. The experiment can be described thus: Survival of intracranial medulloblastoma model mice. Conditions: injected daily with 20 mg/kg, monitored for 50 days, versus vehicle only. It counts as in vivo, mouse. The procedure: The results of the in vivo experiment depicted in FIG. 12 predicted that Shh antagonists would have a positive effect on a mouse model of cancer. Intracranial medulloblastoma model (conditional Patchedl null) mice used in this experiment develop medulloblastoma with an early onset and 100% penetrance. Accordingly, mice were injected daily with 20 mg/kg of either A) vehicle plus IPI-926 (n=12); or B) vehicle only (n=11). The mice were monitored for 50 days for survival, and the results depicted in FIG. 13.

Take `COc1cccc2c1C(=O)c1c(O)c3c(c(O)c1C2=O)C[C@@](O)(C(=O)CO)C[C@@H]3O[C@H]1C[C@H](N)[C@H](O)[C@H](C)O1` [Doxorubicin]: the apoptosis signal entry with mouse tumor is “apoptosis overlaps with the region that received doxorubicin”. Also, the “cell death in tumor slices” value in the experiment on lymphoma tumor is “Cell death was observed in a localized area”.

As to `CC1=C2C[C@H]3[C@@H](CC[C@@H]4C[C@H](NS(C)(=O)=O)CC[C@@]43C)[C@@H]2CC[C@@]2(C1)O[C@@H]1C[C@H](C)CN[C@H]1[C@H]2C` [IPI-926], the survival entry in experiment [1] was “significantly increased survival”.
